Results on twelve molecules are retold here after patent US9566254B2, “Inhibitors and methods of inhibiting bacterial and viral pathogens” (priority 2010, dated 2017).

Some test systems named below: La Crosse virus (LACV); dengue virus; Andes virus.
Holding throughout (assay): microbe, parasite or virus in culture
Common to all, as to assay type: cell-based

The next assay relates to vaccinia virus. The following applies: read-out: Avg Activity (VV).
The next assay concerns Chlamydophila caviae. The following applies: Chlamydia caviae, Vero, read-out: Avg Activity (C. Caviae).
The next assay concerns influenza virus. Particulars: unidentified influenza virus.
Another assay deals with Tacaribe virus. Particulars: Mammarenavirus tacaribeense, Vero.
The next assay has as its system Ebola virus. Particulars: Zaire ebolavirus.
For assay [1], the system named is Rift Valley fever virus (RVFV) vaccine strain MP-12. Particulars: Vero.
For assay [2], the system named is lymphocytic choriomeningitis virus. The following applies: for pEC50: Mammarenavirus choriomeningitidis, read-out: Misc Virus Activity: Lymphocytic Choriomeningitis.
The next assay concerns Sindbis virus. Particulars: read-out: Misc Virus Activity: Sindbis.
Assay [3] deals with encephalomyocarditis virus. The following applies: Cardiovirus A, read-out: Misc Virus Activity: Encephalomyocarditis.
Assay [4] has as its system respiratory syncytial virus. The following applies: human respiratory syncytial virus, read-out: Misc Virus Activity: Respiratory Syncytial.
The next assay concerns HIV-1. Particulars: Human immunodeficiency virus 1, read-out: Misc Virus Activity: HIV-1.
Where [5] appears, read: La Crosse virus, Vero, read-out: Avg Activity (LACV).
[6] abbreviates: A549, read-out: Misc Activity: Influenza.
[7] abbreviates: read-out: Misc Activity: Dengue.
Where [8] appears, read: read-out: Misc Activity: Tacaribe.
[9] abbreviates: A549, read-out: Misc Virus Activity: Influenza.
Where [10] appears, read: read-out: Misc Virus Activity: Dengue.
Where [11] appears, read: read-out: Misc Virus Activity: Tacaribe.
Where [12] appears, read: read-out: Misc Virus Activity: Ebola.
[13] abbreviates: read-out: Misc Virus Activity: Rift Valley Fever.

SMILES strings stand for the structures. pEC50: −log10 of the molar value. Counter-ions that a name gives are not always drawn. Like-named read-outs stand apart in the source and are kept apart here.

Regarding `CC(C)(C)c1ccc(C(=O)NC(=S)Nc2ccc(NC(=O)c3ccccc3Cl)c(N)c2)cc1` [Compound 6, N-[2-amino-4-[(4-tert-butylbenzoyl)-carbamothioylamino]-phenyl]-2-chloro-benzamide hydrochloride], the pEC50 with vaccinia virus (Orthopoxvirus vaccinia), in the assay with La Crosse virus (LACV) (setting [5]), with Chlamydophila caviae, with influenza virus (setting [6]), with dengue virus (setting [7]) and in the assay with Tacaribe virus (setting [8]) was more than 6.00 throughout. In addition, in the assay on Ebola virus (read-out: Misc Activity: Ebola), the pEC50 is 5.00 to 6.00.
For `Cc1ccc(Cl)c(NC(=S)NC(=O)c2ccc(C(C)(C)C)cc2)c1` [Compound 11, 4-tert-butyl-N-[(2-chloro-5-methyl-phenyl)-carbamothioyl]benzamide], the pEC50 in the assay on vaccinia virus (Orthopoxvirus vaccinia) was more than 6.00; in the assay with La Crosse virus (LACV) (setting [5]), 5.00 to 6.00; with Chlamydophila caviae, more than 6.00; in the assay on influenza virus (setting [6]) it was 5.00 to 6.00; with dengue virus (setting [7]) it was more than 6.00.
On to `CC(C)(C)c1ccc(C(=O)NC(=S)Nc2cccc(N)c2)cc1` [Compound 17, N-[(3-aminophenyl)-carbamothioyl]-4-tert-butyl-benzamide], for which the pEC50 was 5.00 to 6.00 with vaccinia virus (Orthopoxvirus vaccinia); 5.00 to 6.00 with La Crosse virus (LACV) (setting [5]); more than 6.00 in the assay with Chlamydophila caviae; more than 6.00 in the assay on influenza virus (setting [6]); more than 6.00 in the assay with dengue virus (setting [7]); more than 6.00 with Tacaribe virus (setting [8]).
As to `COc1cc(NC(=S)NC(=O)c2ccc(C(C)(C)C)cc2)ccc1N` [Compound 18, N-[(4-amino-3-methoxy-phenyl)carbamothioyl]-4-tert-butyl-benzamide hydrochloride], the pEC50 in the assay with vaccinia virus (hydrochloride) was 5.00 to 6.00; in the assay on La Crosse virus (LACV) (read-out: Avg Activity (LACV), hydrochloride), 5.00 to 6.00; in the assay with dengue virus (setting [7]), more than 6.00; with Tacaribe virus (setting [8]), more than 6.00.
Turning to `COc1cc(NC(=S)NC(=O)c2ccc(C(C)(C)C)cc2)ccc1NC(C)=O` [Compound 20, N-[(4-acetamido-3-methoxy-phenyl)-carbamothioyl]-4-tert-butyl-benzamide], the pEC50 was 5.00 to 6.00 in the assay on vaccinia virus (Orthopoxvirus vaccinia); 5.00 to 6.00 with La Crosse virus (LACV) (setting [5]); more than 6.00 in the assay with Chlamydophila caviae; more than 6.00 in the assay with influenza virus (setting [6]); more than 6.00 in the assay on dengue virus (setting [7]); more than 6.00 with Tacaribe virus (setting [8]).
On to `CNc1ccc(NC(=S)NC(=O)c2ccc(C(C)(C)C)cc2)cc1` [Compound 21, 4-tert-butyl-N-[[4-(methylamino)phenyl]-carbamothioyl]benzamide hydrochloride], for which the pEC50 with vaccinia virus (Orthopoxvirus vaccinia) is 5.00 to 6.00; in the assay with La Crosse virus (LACV) (setting [5]), 5.00 to 6.00; with Chlamydophila caviae it was more than 6.00; in the assay on influenza virus (setting [6]) it was more than 6.00; in the assay on dengue virus (setting [7]) it was more than 6.00; in the assay on Tacaribe virus (setting [8]) it was more than 6.00.
On to `COc1cc(NC(=S)NC(=O)c2ccc(C(C)(C)C)cc2)ccc1NC(=O)c1ccccc1Cl` [Compound 39], for which the pEC50 with vaccinia virus (Orthopoxvirus vaccinia), in the assay on La Crosse virus (LACV) (setting [5]), with Chlamydophila caviae, in the assay with influenza virus (setting [9]), with dengue virus (setting [10]) and in the assay on Tacaribe virus (setting [11]) was more than 6.00 in each case. The pEC50 in the assay on Ebola virus (setting [12]) is more than 6.00; in [1] (setting [13]), more than 6.00; in assay [2] it was more than 6.00; with Andes virus (Orthohantavirus andesense, read-out: Misc Virus Activity: Andes) it was more than 6.00; in the assay with Sindbis virus it was more than 6.00; in assay [3] it was more than 6.00. In addition, the pEC50 (in [4]; in the assay with HIV-1) was more than 6.00 each time. Further, in assay [2], the “Lymphocytic Choriomeningitis: reduces yield” value was “(reduces yield >10^4-fold)”. The “Andes: reduces yield” value in the assay with Andes virus is “yield >100-fold)”.
In the case of `CC(C)(C)c1ccc(C(=O)NC(=S)Nc2ccccc2Cl)cc1` [Compound 40, 4-tert-butyl-N-[(2-chlorophenyl)carbamothioyl]-benzamide], the pEC50 in the assay with vaccinia virus (Orthopoxvirus vaccinia), with La Crosse virus (LACV) (setting [5]), with Chlamydophila caviae, in the assay on influenza virus (setting [9]), with dengue virus (setting [10]) and in the assay with Tacaribe virus (setting [11]) was more than 6.00 in each case. Moreover, the pEC50 was 4.60 to 5.00 in the assay with Ebola virus (setting [12]), more than 6.00 in assay [1] (setting [13]) and more than 6.00 in assay [2]. For the same molecule, the “Lymphocytic Choriomeningitis: reduces yield” value in [2] is on record as “(reduces yield >10^4-fold)”.
For `CC(C)(C)c1ccc(C(=O)NC(=S)Nc2ccc(Nc3ccccc3)cc2)cc1` [Compound 45, N-[(4-anilinophenyl)-carbamothioyl]-4-tert-butyl-benzamide], the pEC50 was more than 6.00 in the assay with vaccinia virus (Orthopoxvirus vaccinia); 5.00 to 6.00 with La Crosse virus (LACV) (setting [5]); more than 6.00 in the assay on Chlamydophila caviae; more than 6.00 in the assay on influenza virus (setting [9]); more than 6.00 with dengue virus (setting [10]); more than 6.00 in the assay with Tacaribe virus (setting [11]).
Turning to `Cc1ccc(NC(=S)NC(=O)c2ccc(C(C)(C)C)cc2)c(C)c1` [Compound 48, 4-tert-butyl-N-[(2,4-dimethylphenyl)-carbamothioyl]benzamide], the pEC50 in the assay with vaccinia virus (Orthopoxvirus vaccinia) was 5.00 to 6.00; in the assay on La Crosse virus (LACV) (setting [5]), more than 6.00; with Chlamydophila caviae it was more than 6.00; in the assay on influenza virus (setting [9]), 5.00 to 6.00; in the assay on dengue virus (setting [10]), more than 6.00; in the assay on Tacaribe virus (setting [11]) it was more than 6.00.
With `CN(C)c1ccc(NC(=S)NC(=O)c2ccc(C(C)(C)C)cc2)cc1` [Compound 49, 4-tert-butyl-N-[(4-dimethylaminophenyl)-carbamothioyl]benzamide], the pEC50 with vaccinia virus (Orthopoxvirus vaccinia) is 5.00 to 6.00; in the assay on La Crosse virus (LACV) (setting [5]) it was more than 6.00; in the assay on Chlamydophila caviae it was 5.00 to 6.00; in the assay on influenza virus (setting [9]), more than 6.00; in the assay on dengue virus (setting [10]), more than 6.00; in the assay on Tacaribe virus (setting [11]) it was more than 6.00.
On to `NC(=O)c1ncn([C@@H]2O[C@H](CO)[C@@H](O)[C@H]2O)n1` [ribavirin, reference compound], for which the pEC50 in the assay on La Crosse virus (LACV) (La Crosse virus, Vero, read-out: EC50 value for LACV) is 3.12; in assay [1] (read-out: EC50 value for RVFV) it was 3.52.
